# Literature values, collected in patent US12036313B2, “Personal lubricants comprising lambda-carrageenan” (LANVIRA, LLC, priority 2018, dated 2024).
# Tested on: HPV
# Details: in vitro and in vivo
substance,measurement,value
lambda-carrageenan,Activity against HPV,active against HPV
